This is an account of results in patent publication US8563603B2, “Polycyclic compounds and methods related thereto” (Cornell University, priority 2008, dated 2013).

In one assay the test system is breast cancer cell lines. Kind of assay: Alamar Blue cytotoxicity, averaged across cell lines or cell line not stated. Format: cell-based, human. Particulars: averaged across cell lines. On the procedure: (§1) Human breast carcinoma cell line lines; SKBR-3, BT20, MB-MDA-468, MB-MDA-453, MB-MDA-231, and MCF-7 and human cancer cell lines Calu-6, Hela, HCT-116, HT-29, and A-431, obtained from ATCC (Manassas, Va.), were cultured in Dulbecco's Modified Eagle's Medium (DMEM-Sigma D-564R) supplemented with 10% Fetal Calf Serum (heat-inactivated) and antibiotics (Antibiotic Antimycotic Solution 100×, Sigma A9909). Breast cancer cell lines were chosen based on their varying amount of Epidermal Growth Factor Receptors (EGFR). Cells were routinely propagated and cultured at 37° C. in a 100% relative humidified atmosphere consisting of 5% C02 and 95% air. Cells were trypsinized with 0.05% Trypsin-0.2% EDTA (w/v) solution. All experiments were repeated at least three times.
Cells were seeded onto a standard 96-well microtiter plate at a density of 2×10^4 cells/well in 100-μl tissue culture medium. […] Each well was evaluated at seven 10-fold dilutions starting from a high of 1000 ppm. […] Following a 48-h incubation period, extracted cells were evaluated using Alamar Blue, a fluorometric/colorimetric assay that measures cell proliferation by relying on the cells metabolic activity. […] Data were analyzed immediately by visualizing color densities and/or with a standard spectrophotometer at 540 nm.

For assay [1], the system named is Human breast cancer cell line MB-MDA-231. Kind of assay: Annexin V FITC / PI apoptosis detection by flow cytometry, 24 h. Format: cell-based. The method, then: Human breast cancer cell line MB-MDA-231 were cultured in Dulbecco's Modified Eagle's medium (DMEM-Sigma, D-5648), supplemented with 10% (heat-inactivated) Fetal Bovine Serum (Atlanta Biologicals, Inc.) and Antibiotic Solution, 100× (Sigma A-9909). Cells were gown at 37° C., at 5-7% CO2, and 95% humidity and were obtained from the American Type Culture Collection (ATCC). Cells were trypsinized with 0.05% Trypsin-0.2% EDTA (w/v) solution (Invitrogen Corporation, Carlsbad, Calif.).
The induction of apoptosis in MB-MDA-231 was analyzed using a well-validated Annexin V FITC apoptosis detection kit (Calbiochem), Darzynkiewicz, 1998. The phosphatidylserine (PS)-specific dye Annexin-V is used to detect apoptotic-specific changes to the organization of phospholipids leading to exposure of PS on the cell surface that precedes nuclear breakdown, DNA fragmentation, and the appearance of most apoptosis-associated molecules. For these studies cells were seeded at 25×10^4 cells/1.5 ml in a 24 well microtiter plate. Cells were allowed to adhere to plates for 24 h, and then exposed to lignans of the present invention at 5-fold dilutions of 30 μl, 6 μl, and 1.2 μl per well for 24 h. Test compounds were mixed in solution using DMSO as vehicle (10 mg extract/1 ml DMSO). Camptothecin was used as a positive control. Following the incubation period 700 μl of suspended cells were transferred to 15 ml conical tubes. Cells that remained adhered to the 24-well plates were gently washed with PBS (137 mM NaCl, 2.7 mM KCL, 4.3 mM Na2HPO4-7H2O, 1.4 mM KH2PO4, adjusted to pH 7.4), trypsinized with 1 ml of solution (0.05% Trypsin—0.2% EDTA [w/v]), and resuspended with the suspended cells/media collected in the 15 ml conical tubes from the previous step. 10 μl of media-binding reagent and 1.25 μl Annexin V-FITC was added to the 15 ml conical tubes containing both the 700 μl of suspended cells and the resuspended cells and incubated at room temperature for 15 min, at 18-24° C., in the dark. Tubes were centrifuged for 5 minutes at 1000×g at room temperature. Media was removed and cells were gently resuspended in 0.5 ml cold 1×binding buffer (dilution; 5× Binding Buffer concentrate 1:5 with dH2O) and placed on ice. 10 μl of propidium iodide was added to each tube. Cells were placed on ice away from light and analyzed immediately by flow cytometry. The dual fluorescence emissions of the respective dyes were detected in cell preparations on a BD-Biosciences FACS Aria high-speed flow cytometer/cell sorter utilizing a quartz cuvette for interrogation. To quantify the Annexin V (FL1 at 518 nm) and propidium iodide (620 nm) signals, apoptosis-induced cells (CPT) stained with FITC only and apoptosis-induced cells (CPT) labeled with only propidium iodide were utilized. Necessary adjustments were made to minimize overlap between these two measurements. Typically, 10,000-20,000 cells were scored for each sample and classified as either viable, early apoptotic, or late apoptotic or necrotic. All experiments were repeated at least three times, each in duplicate.
The principal of the Annexin V/FITC assay is that, Annexin V, an anticoagulant protein, preferentially binds negatively charged phospholipids. Early in the apoptotic process, phospholipid asymmetry is disrupted leading to the exposure of phosphatidylserine (PS) on the outer leaflet of the cytoplasmic membrane. Annexin V binds to the negatively charged calcium-dependent PS. Conjugating FITC to Annexin V with simultaneous propidium iodide (PI) staining allows bivariate analysis of intact cells. Live, healthy cells are double negative, FITC (−)/PI (−), and are seen in the lower left quadrant [A3] of FACS cytograms. Cells that are FITC (+)/PI (−) [A4] are early apoptotic. Cell populations that are advanced apoptotic or necrotic are FITC (+)/PI (+) are located in quadrant [A2]. […]

The subject of the next assay is cell line MD-MBA-231. Kind of assay: Cell cycle analysis by DNA content (hypotonic PI staining, flow cytometry). Format: cell-based, human. To be noted: 1.2, 6.0, 30.0 ppm; 24 h. The method, then:
Twenty-four hours after exposure to compounds, 25×10^4 cells in 1.5 ml cells were simply re-suspended following either the Annexin V/FITC assay or the trypsin procedures. Cells were centrifuged at 1000-x g at room temperature and washed in 0.5 ml of hypotonic staining solution. Cells were kept a minimum of 30 min. at 4° C. in the dark. Samples were usually analyzed by flow cytometry on the same day or at 24 hrs. Resulting DNA distributions were analyzed for the proportion of cells in apoptosis and in G0/G1, S, and G2/M phases of the cell cycle. Singlet events were gated and 10,000-20,000 events were acquired within the gated region. All experiments were repeated at least three times, each in duplicate.
The cell cycle comprises steps that regulate the correct temporal sequence of events that control the growth, reproduction and differentiation of cells. The cell cycle consists of 4 phases: G0/G1, S (DNA synthesis), G2, and M (mitosis). In addition, checkpoints located in the cell cycle transition ensure that cell growth and division occur in response to appropriate signals and environment. When proliferating, if cells are subjected to DNA damage the cell cycle temporarily pauses either at G1, S or G2 phase. Arrest at these checkpoints prevents DNA replication and mitosis in the presence of unrepaired DNA damage and presumably allows time for DNA repair to occur. The proportion of cells that arrest in G1, S or G2 after damage depends on cell type, growth conditions, type of damage and the checkpoints operative in the cells. Shifts in the redistribution of phases of the cell cycle in response to various stimuli can be readily assessed by flow cytometry. DNA content analysis with the use of PI is one of the most common assays. The use of intercalating dyes to measure DNA content are the most common and are usually sufficient to determine relative shifts in the phases of the cell cycle. The hypotonic solution lyses the plasma membrane and prevents many of the aggregate problems associated with fixed cells. Propidium Iodide(PI) passes through permeabilized cell membranes and intercalates with cellular DNA. Therefore, the intensity of the PI signal is directly proportional to DNA content. DNA content experiments determine the percent induction of apoptosis and relative distribution of the cell cycle phases.
The percent of apoptotic cells (cells with fractional DNA content; sub G1 cells) were established by estimating the percentage of events showing up in sub G0. The Sub-G1 method relies on the fact that after DNA fragmentation, there are small fragments of DNA that may be eluted. However in order to be seen in the Sub G1 area, a cell must have lost enough DNA to appear there; so if cells enter apoptosis from the S or G2/M phase of the cell cycle or if there is an aneuploid population undergoing apoptosis, they may not appear in the Sub G1 peak. The number of events in sub G1 (number of nuclear fragments) provides no information on the # of cells undergoing apoptosis.

Another assay deals with cancer cell lines. The assay is described as follows: Sulforhodamine B (SRB) assay, cell line not stated / average of all cell lines. Particulars: highest concentration; positive control averaged on all cell lines. The format is cell-based, human. The method, then: as §1
In addition to Alamar blue, Sulforhodamine B Assay (SRB) was used to determine inhibition by bound protein. Individual cell lines were seeded at varying cell densities as determined by growth rate. […] The absorbance of stained protein was read with an automated 96-well microtiter ELISA plate reader (SAFIRE) at 540 nm. Using absorbance measurement [time zero. (Tz)—control growth, and growth at each drug concentration level (Ti)], the percentage growth is calculated at each of the drug concentrations. Percent growth inhibition is calculated as: [(Ti−Tz)/Tz]×100 for concentration for which Ti<Tz.

Each structure is given as a SMILES string.

Consider `CC[C@@]1(O)C(=O)OCc2c1cc1n(c2=O)Cc2cc3ccccc3nc2-1` [Camptothecin, reference compound], for which the “concentration of cell death / greatest inhibition, positive controls” value in the assay on breast cancer cell lines came to 7.81 ppm. In assay [1] (1.2, 6.0, 30.0 ppm, 24 h), the “early stage apoptosis, FITC (+)/PI (−) staining, significance” value was “significantly increased”. Further, in assay [1] (all doses), the “early apoptosis activity increased over the spirocyclic lignans” value is reported as “at least 5%”. Besides, in the assay with cell line MD-MBA-231, the “% events in sub G0 (apoptotic events)” value is “increased and significantly induced apoptotic activity at 30.0 ppm”; the “effect on cell population in G2/M” value is listed as “remained at levels with untreated cells at all doses”; the “effect on cell populations in S-phase, significance” value was “significant at 6.0 and 30.0 ppm”; the singlet count entry was “reached minimal levels at 30 ppm”.
Turning to `O=c1[nH]cc(F)c(=O)[nH]1` [5-fluorouracil, 5-Fluorouracil], the inhibited cell growth result in the assay on cancer cell lines is “approximately 60%”. For the same compound, the “concentration of cell death / greatest inhibition, positive controls” value in the assay with breast cancer cell lines is “cell death at the same lower limits as cell lines BT20 and MB-MDA-453”.
